Key:
Test in all cases: Kinase profiling
Assay type in all cases: biochemical
ACTR2(h) = target: T1, ACTR2(h) (Homo sapiens, UniProt P27037)
T1 construct: purchased Eurofins Cerep SA (KinaseProfiler)
Method: (§1) 380 kinases inhibitory activities of SKLB-D18 were conducted by Eurofins Cerep SA. The result was illustrated by kinase tree (http://www.kinhub.org/kinmap/).

ALK1(h) = target: T2, ALK1(h) (Homo sapiens, UniProt P37023)
T2 construct: purchased Eurofins Cerep SA (KinaseProfiler)
Method: as §1

B-Raf(h) = target: T3, B-Raf(h) (Homo sapiens, UniProt P15056)
T3 construct: purchased Eurofins Cerep SA (KinaseProfiler)
Method: as §1

CDK18/cyclinY(h) = target: T4, CDK18/cyclinY(h) (Homo sapiens, UniProt Q07002)
T4 construct: purchased Eurofins Cerep SA (KinaseProfiler)
Method: as §1

CDKL2(h) = target: T5, CDKL2(h) (Homo sapiens, UniProt Q92772)
T5 construct: purchased Eurofins Cerep SA (KinaseProfiler)
Method: as §1

CHK1(h) = target: T6, CHK1(h) (Homo sapiens, UniProt O14757)
T6 construct: purchased Eurofins Cerep SA (KinaseProfiler)
Method: as §1

CK1δ(h) = target: T7, CK1δ(h) (Homo sapiens, UniProt P48730)
T7 construct: purchased Eurofins Cerep SA (KinaseProfiler)
Method: as §1

CK1ε(h) = target: T8, CK1ε(h) (Homo sapiens, UniProt P49674)
T8 construct: purchased Eurofins Cerep SA (KinaseProfiler)
Method: as §1

CLK1(h) = target: T9, CLK1(h) (Homo sapiens, UniProt P49759)
T9 construct: purchased Eurofins Cerep SA (KinaseProfiler)
Method: as §1

CRIK(h) = target: T10, CRIK(h) (Homo sapiens, UniProt O14578)
T10 construct: purchased Eurofins Cerep SA (KinaseProfiler)
Method: as §1

CaMKI(h) = target: T11, CaMKI(h) (Homo sapiens, UniProt Q14012)
T11 construct: purchased Eurofins Cerep SA (KinaseProfiler)
Method: as §1

CaMKIγ(h) = target: T12, CaMKIγ(h) (Homo sapiens, UniProt Q96NX5)
T12 construct: purchased Eurofins Cerep SA (KinaseProfiler)
Method: as §1

DCAMKL2(h) = target: T13, DCAMKL2(h) (Homo sapiens, UniProt Q8N568)
T13 construct: purchased Eurofins Cerep SA (KinaseProfiler)
Method: as §1

EphB4(h) = target: T14, EphB4(h) (Homo sapiens, UniProt P54760)
T14 construct: purchased Eurofins Cerep SA (KinaseProfiler)
Method: as §1

GRK3(h) = target: T15, GRK3(h) (Homo sapiens, UniProt P35626)
T15 construct: purchased Eurofins Cerep SA (KinaseProfiler)
Method: as §1

HPK1(h) = target: T16, HPK1(h) (Homo sapiens, UniProt Q92918)
T16 construct: purchased Eurofins Cerep SA (KinaseProfiler)
Method: as §1

IRAK1(h) = target: T17, IRAK1(h) (Homo sapiens, UniProt P51617)
T17 construct: purchased Eurofins Cerep SA (KinaseProfiler)
Method: as §1

IRR(h) = target: T18, IRR(h) (Homo sapiens, UniProt P14616)
T18 construct: purchased Eurofins Cerep SA (KinaseProfiler)
Method: as §1

LKB1(h) = target: T19, LKB1(h) (Homo sapiens, UniProt Q15831)
T19 construct: purchased Eurofins Cerep SA (KinaseProfiler)
Method: as §1

MAPKAP-K2(h) = target: T20, MAPKAP-K2(h) (Homo sapiens, UniProt P49137)
T20 construct: purchased Eurofins Cerep SA (KinaseProfiler)
Method: as §1

MARK4(h) = target: T21, MARK4(h) (Homo sapiens, UniProt Q96L34)
T21 construct: purchased Eurofins Cerep SA (KinaseProfiler)
Method: as §1

MEK1(h) = target: T22, MEK1(h) (Homo sapiens, UniProt Q02750)
T22 construct: purchased Eurofins Cerep SA (KinaseProfiler)
Method: as §1

Mnk2(h) = target: T23, Mnk2(h) (Homo sapiens, UniProt Q9HBH9)
T23 construct: purchased Eurofins Cerep SA (KinaseProfiler)
Method: as §1

NDR2(h) = target: T24, NDR2(h) (Homo sapiens, UniProt Q9Y2H1)
T24 construct: purchased Eurofins Cerep SA (KinaseProfiler)
Method: as §1

NLK(h) = target: T25, NLK(h) (Homo sapiens, UniProt Q9UBE8)
T25 construct: purchased Eurofins Cerep SA (KinaseProfiler)
Method: as §1

NUAK2(h) = target: T26, NUAK2(h) (Homo sapiens, UniProt Q9H093)
T26 construct: purchased Eurofins Cerep SA (KinaseProfiler)
Method: as §1

OSR1(h) = target: T27, OSR1(h) (Homo sapiens, UniProt O95747)
T27 construct: purchased Eurofins Cerep SA (KinaseProfiler)
Method: as §1

[1] = target: T28, PI3 Kinase (p110d/p85a)(h) (Homo sapiens, UniProt O00329)
T28 construct: purchased Eurofins Cerep SA (KinaseProfiler)
Method: as §1

PI3 Kinase (p120g)(h) = target: T29, PI3 Kinase (p120g)(h) (Homo sapiens, UniProt P48736)
T29 construct: purchased Eurofins Cerep SA (KinaseProfiler)
Method: as §1

PIP4K2a(h) = target: T30, PIP4K2a(h) (Homo sapiens, UniProt P48426)
T30 construct: purchased Eurofins Cerep SA (KinaseProfiler)
Method: as §1

PKCη(h) = target: T31, PKCη(h) (Homo sapiens, UniProt P24723)
T31 construct: purchased Eurofins Cerep SA (KinaseProfiler)
Method: as §1

PKCι(h) = target: T32, PKCι(h) (Homo sapiens, UniProt P41743)
T32 construct: purchased Eurofins Cerep SA (KinaseProfiler)
Method: as §1

PRP4(h) = target: T33, PRP4(h) (Homo sapiens, UniProt Q13523)
T33 construct: purchased Eurofins Cerep SA (KinaseProfiler)
Method: as §1

Pim-3(h) = target: T34, Pim-3(h) (Homo sapiens, UniProt Q86V86)
T34 construct: purchased Eurofins Cerep SA (KinaseProfiler)
Method: as §1

Plk1(h) = target: T35, Plk1(h) (Homo sapiens, UniProt P53350)
T35 construct: purchased Eurofins Cerep SA (KinaseProfiler)
Method: as §1

Pyk2(h) = target: T36, Pyk2(h) (Homo sapiens, UniProt Q14289)
T36 construct: purchased Eurofins Cerep SA (KinaseProfiler)
Method: as §1

SRMS(h) = target: T37, SRMS(h) (Homo sapiens, UniProt Q9H3Y6)
T37 construct: purchased Eurofins Cerep SA (KinaseProfiler)
Method: as §1

STK32B(h) = target: T38, STK32B(h) (Homo sapiens, UniProt Q9NY57)
T38 construct: purchased Eurofins Cerep SA (KinaseProfiler)
Method: as §1

Tie2 (h) = target: T39, Tie2 (h) (Homo sapiens, UniProt Q02763)
T39 construct: purchased Eurofins Cerep SA (KinaseProfiler)
Method: as §1

WNK2(h) = target: T40, WNK2(h) (Homo sapiens, UniProt Q9Y3S1)
T40 construct: purchased Eurofins Cerep SA (KinaseProfiler)
Method: as §1

Wee1B(h) = target: T41, Wee1B(h) (Homo sapiens, UniProt P0C1S8)
T41 construct: purchased Eurofins Cerep SA (KinaseProfiler)
Method: as §1

T17 sequence (P51617 whole entry): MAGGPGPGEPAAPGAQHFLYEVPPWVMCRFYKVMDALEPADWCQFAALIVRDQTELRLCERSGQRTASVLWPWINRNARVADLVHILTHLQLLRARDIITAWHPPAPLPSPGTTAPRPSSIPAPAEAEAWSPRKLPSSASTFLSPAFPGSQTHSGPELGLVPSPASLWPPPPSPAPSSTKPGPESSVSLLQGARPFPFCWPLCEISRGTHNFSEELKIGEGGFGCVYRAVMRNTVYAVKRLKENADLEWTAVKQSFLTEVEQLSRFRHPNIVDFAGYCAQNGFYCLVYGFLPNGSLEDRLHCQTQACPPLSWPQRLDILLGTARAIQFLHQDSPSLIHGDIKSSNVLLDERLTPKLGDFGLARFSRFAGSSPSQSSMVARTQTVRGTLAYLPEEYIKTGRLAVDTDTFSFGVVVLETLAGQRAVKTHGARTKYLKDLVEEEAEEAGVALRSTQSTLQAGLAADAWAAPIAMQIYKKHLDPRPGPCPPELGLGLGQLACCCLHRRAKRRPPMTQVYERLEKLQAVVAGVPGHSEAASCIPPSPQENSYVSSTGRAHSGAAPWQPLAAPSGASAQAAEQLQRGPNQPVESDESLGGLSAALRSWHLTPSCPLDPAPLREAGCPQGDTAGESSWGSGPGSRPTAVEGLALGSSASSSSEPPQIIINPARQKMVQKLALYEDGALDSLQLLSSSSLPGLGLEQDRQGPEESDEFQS
T36 sequence (Q14289 whole entry): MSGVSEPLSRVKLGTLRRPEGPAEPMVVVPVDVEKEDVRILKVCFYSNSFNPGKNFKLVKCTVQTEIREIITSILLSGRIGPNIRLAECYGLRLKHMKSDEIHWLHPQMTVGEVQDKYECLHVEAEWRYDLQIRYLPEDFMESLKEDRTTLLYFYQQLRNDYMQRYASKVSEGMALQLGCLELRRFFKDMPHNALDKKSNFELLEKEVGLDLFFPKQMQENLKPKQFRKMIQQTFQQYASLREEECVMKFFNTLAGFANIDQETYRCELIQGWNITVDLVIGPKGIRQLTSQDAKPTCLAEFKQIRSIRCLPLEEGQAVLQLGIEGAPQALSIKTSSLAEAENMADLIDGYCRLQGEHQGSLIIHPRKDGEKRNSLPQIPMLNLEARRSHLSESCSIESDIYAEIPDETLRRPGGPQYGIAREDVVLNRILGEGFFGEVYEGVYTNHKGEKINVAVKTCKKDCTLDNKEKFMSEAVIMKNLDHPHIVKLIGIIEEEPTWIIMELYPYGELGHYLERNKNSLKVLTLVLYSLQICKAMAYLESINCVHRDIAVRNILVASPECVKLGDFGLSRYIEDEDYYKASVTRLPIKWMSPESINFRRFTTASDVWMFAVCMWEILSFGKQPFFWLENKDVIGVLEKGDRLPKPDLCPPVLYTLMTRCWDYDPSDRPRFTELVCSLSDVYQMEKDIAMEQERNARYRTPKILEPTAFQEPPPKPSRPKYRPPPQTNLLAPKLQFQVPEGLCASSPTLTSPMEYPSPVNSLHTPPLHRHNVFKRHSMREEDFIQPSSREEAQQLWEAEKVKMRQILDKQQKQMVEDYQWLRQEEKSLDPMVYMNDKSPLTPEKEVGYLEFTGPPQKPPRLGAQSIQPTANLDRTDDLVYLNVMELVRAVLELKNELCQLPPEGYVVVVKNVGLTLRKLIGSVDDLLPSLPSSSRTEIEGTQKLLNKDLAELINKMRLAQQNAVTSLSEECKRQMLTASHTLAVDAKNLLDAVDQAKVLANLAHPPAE
T21 sequence (Q96L34 whole entry): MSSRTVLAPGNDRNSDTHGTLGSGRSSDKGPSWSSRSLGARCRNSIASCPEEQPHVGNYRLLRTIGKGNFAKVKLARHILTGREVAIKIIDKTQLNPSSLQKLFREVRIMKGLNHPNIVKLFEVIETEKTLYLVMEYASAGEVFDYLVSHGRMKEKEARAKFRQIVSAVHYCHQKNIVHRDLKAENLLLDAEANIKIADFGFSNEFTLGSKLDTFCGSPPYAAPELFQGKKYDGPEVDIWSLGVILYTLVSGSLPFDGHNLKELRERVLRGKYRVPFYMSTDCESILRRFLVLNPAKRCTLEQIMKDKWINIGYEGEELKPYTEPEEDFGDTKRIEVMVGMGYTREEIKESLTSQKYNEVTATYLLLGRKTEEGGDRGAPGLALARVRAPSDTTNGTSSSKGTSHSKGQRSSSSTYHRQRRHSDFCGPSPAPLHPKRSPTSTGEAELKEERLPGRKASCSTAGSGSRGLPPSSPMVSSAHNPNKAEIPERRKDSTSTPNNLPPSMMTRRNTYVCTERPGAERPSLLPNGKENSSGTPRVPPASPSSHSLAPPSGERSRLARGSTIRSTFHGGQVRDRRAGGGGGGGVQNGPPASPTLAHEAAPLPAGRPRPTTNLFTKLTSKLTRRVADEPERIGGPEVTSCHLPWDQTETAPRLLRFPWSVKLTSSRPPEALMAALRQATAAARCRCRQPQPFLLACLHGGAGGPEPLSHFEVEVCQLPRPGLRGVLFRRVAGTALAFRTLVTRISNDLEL
T32 sequence (P41743 whole entry): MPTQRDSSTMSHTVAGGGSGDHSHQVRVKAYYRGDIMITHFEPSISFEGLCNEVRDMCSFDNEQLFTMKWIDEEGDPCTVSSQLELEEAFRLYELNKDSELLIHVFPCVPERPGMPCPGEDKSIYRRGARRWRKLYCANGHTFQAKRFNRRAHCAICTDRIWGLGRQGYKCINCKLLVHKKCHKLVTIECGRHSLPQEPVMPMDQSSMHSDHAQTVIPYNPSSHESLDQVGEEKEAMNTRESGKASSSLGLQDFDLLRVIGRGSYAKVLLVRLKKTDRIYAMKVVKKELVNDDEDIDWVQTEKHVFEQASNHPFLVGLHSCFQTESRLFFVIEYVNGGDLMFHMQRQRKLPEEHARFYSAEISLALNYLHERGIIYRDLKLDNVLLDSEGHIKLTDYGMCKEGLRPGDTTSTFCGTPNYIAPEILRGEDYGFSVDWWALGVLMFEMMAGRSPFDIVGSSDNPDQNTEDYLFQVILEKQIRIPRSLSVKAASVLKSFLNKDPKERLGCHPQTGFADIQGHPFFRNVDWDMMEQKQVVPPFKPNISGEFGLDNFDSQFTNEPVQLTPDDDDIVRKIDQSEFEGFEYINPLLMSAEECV
T28 sequence (O00329 whole entry): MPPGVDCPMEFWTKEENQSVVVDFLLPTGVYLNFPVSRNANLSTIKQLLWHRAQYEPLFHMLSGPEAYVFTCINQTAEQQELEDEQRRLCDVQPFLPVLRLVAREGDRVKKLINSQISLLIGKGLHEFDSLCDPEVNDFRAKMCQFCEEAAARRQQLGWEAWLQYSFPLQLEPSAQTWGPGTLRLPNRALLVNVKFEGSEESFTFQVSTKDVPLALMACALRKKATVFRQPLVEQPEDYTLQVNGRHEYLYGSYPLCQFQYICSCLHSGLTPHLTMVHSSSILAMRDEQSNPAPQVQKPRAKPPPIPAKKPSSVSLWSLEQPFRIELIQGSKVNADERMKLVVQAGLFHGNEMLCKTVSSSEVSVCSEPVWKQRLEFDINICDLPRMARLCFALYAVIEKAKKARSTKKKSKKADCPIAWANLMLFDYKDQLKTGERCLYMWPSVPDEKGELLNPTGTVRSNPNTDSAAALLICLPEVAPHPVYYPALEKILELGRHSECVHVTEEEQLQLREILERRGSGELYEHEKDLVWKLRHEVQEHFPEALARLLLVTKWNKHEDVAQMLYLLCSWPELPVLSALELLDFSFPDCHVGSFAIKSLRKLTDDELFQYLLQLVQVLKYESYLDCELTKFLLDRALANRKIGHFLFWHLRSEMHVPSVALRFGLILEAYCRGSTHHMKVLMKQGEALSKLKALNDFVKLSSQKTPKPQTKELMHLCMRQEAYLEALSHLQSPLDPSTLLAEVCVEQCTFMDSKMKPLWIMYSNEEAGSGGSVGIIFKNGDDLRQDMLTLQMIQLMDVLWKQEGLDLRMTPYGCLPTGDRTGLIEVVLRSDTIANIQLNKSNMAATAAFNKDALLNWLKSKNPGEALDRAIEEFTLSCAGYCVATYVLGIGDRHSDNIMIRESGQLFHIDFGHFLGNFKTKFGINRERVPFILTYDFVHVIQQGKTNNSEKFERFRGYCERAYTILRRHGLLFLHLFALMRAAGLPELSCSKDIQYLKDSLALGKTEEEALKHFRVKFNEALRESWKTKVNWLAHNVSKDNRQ
T28 sequence (P27986 whole entry partner): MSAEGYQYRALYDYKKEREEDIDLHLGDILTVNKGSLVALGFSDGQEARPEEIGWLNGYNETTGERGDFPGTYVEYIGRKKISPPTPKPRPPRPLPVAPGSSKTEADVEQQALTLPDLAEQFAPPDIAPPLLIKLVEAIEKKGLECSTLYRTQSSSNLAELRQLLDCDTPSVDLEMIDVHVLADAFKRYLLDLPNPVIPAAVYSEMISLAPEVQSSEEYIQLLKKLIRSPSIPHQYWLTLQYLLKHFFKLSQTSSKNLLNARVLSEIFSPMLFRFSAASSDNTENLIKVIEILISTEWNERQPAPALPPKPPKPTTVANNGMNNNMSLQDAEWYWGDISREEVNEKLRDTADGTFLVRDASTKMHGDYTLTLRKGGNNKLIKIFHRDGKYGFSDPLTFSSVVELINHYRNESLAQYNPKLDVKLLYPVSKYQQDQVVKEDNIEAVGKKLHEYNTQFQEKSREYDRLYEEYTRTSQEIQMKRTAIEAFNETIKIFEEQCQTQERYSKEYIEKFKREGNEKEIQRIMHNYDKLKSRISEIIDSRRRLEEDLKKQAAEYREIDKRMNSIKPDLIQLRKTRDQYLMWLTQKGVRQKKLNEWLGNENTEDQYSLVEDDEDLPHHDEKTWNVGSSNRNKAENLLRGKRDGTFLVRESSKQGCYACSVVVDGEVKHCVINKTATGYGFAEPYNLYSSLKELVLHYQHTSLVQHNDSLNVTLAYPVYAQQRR

Which results are given for `CN(C)Cc1cccc(Nc2ncc(Cl)c(-c3csc(C(=O)NN4CCOCC4)c3)n2)c1` [SKLB-D18, 4-(5-chloro-2-((3-((dimethylamino)methyl)phenyl)amino)pyrimidin-4-yl)-N-morpholinothiophene-2-carboxamide]?
inhibition at 1 µM (ACTR2(h)): 10%; inhibition at 1 µM (ALK1(h)): 20%; inhibition at 1 µM (B-Raf(h)): 59%; inhibition at 1 µM (CDK18/cyclinY(h)): 48%; inhibition at 1 µM (CDKL2(h)): 39%; inhibition at 1 µM (CHK1(h)): 36%; inhibition at 1 µM (CK1δ(h)): 16%; inhibition at 1 µM (CK1ε(h)): 18%; inhibition at 1 µM (CLK1(h)): 17%; inhibition at 1 µM (CRIK(h)): 19%; inhibition at 1 µM (CaMKI(h)): 16%; inhibition at 1 µM (CaMKIγ(h)): 12%; inhibition at 1 µM (DCAMKL2(h)): 55%; inhibition at 1 µM (EphB4(h)): 9%; inhibition at 1 µM (GRK3(h)): 2%; inhibition at 1 µM (HPK1(h)): 68%; inhibition at 1 µM (IRAK1(h)): 60%; inhibition at 1 µM (IRR(h)): 57%; inhibition at 1 µM (LKB1(h)): 29%; inhibition at 1 µM (MAPKAP-K2(h)): 1%; inhibition at 1 µM (MARK4(h)): 64%; inhibition at 1 µM (MEK1(h)): 15%; inhibition at 1 µM (Mnk2(h)): 59%; inhibition at 1 µM (NDR2(h)): 27%; inhibition at 1 µM (NLK(h)): 26%; inhibition at 1 µM (NUAK2(h)): 67%; inhibition at 1 µM (OSR1(h)): 28%; inhibition at 1 µM [1]: 0%; inhibition at 1 µM (PI3 Kinase (p120g)(h)): 4%; inhibition at 1 µM (PIP4K2a(h)): -1%; inhibition at 1 µM (PKCη(h)): 16%; inhibition at 1 µM (PKCι(h)): 8%; inhibition at 1 µM (PRP4(h)): 19%; inhibition at 1 µM (Pim-3(h)): 33%; inhibition at 1 µM (Plk1(h)): -5%; inhibition at 1 µM (Pyk2(h)): 46%; inhibition at 1 µM (SRMS(h)): 11%; inhibition at 1 µM (STK32B(h)): -3%; inhibition at 1 µM (Tie2 (h)): 44%; inhibition at 1 µM (WNK2(h)): 24%; inhibition at 1 µM (Wee1B(h)): 49%

— article PMC11842588, “A first-in-class selective inhibitor of ERK1/2 and ERK5 overcomes drug resistance with a single-molecule strategy” (Signal Transduction and Targeted Therapy, 2025)
